Data published in patent US20100254942A1, “HEPATITIS C ANTIVIRAL COMPOSITIONS AND METHODS” (BIOTRON LIMITED, priority 2007, published 2010).
Where “and” joins values, the source holds several entries; their conditions need not be identical. Identical values can stand only once. Like-named read-outs stand apart in the source and are kept apart here.

Legend:
[1] = target: T1, HCV p7 ion channel protein (Hepatitis C virus genotype 1a, UniProt P27958); experiment: Bacterial bioassay: growth of E. coli expressing HCV p7; type: cell-based; design: scale not given here; conditions: cumulative averaged scores; result above zero indicates potential anti-viral activity
T1 construct: codons were optimised for expression of the p7 protein in E. coli; expressed in transfected cells; host or cells: E. coli carrying plasmid pPLp7 (pPL451 backbone, temperature-inducible)
Description: The bacterial bioassay method used in the present example to test the anti-viral activity of the compounds against different viral targets was described in detail in PCT/2004/000866, incorporated in its entirety herein by reference. This assay is used in conjunction with the GBV-B and BVDV assays described below, to ensure that all active compounds are identified, some of which are active in one or the other of the assays, while some compounds may be active in both assays.
Briefly, the bacterial bio-assay for screening potential anti-HCV compounds is based on the HCV p7 ion channel protein. p7 is a small membrane protein encoded by HCV, which has a functional activity supporting viral growth and/or replication.
The p7-encoding synthetic cDNA fragment cDp7.coli, in which codons were optimised for expression of the p7 protein in E. coli, was cloned into the expression plasmid pPL451, creating the vector pPLp7, in which p7 expression is temperature inducible, as described in detail in PCT/2004/000866. Inhibition of the growth of E. coli cells expressing p7 at 37° C. was observed as an indicator of p7 ion channel function dissipating the normal Na+gradient maintained by the bacterial cells. Halos of growth around a particular compound application site indicate that the compound has inhibited expression of the p7 ion channel activity that prevents growth in the absence of the compound.
The positive controls were used in this assay to ensure that the assay was working rather than for comparison of relative activities of the compounds.

[2] = tested on: bovine viral diarrhea virus (BVDV) strain NADL; experiment: BVDV CPE-inhibition assay in MDBK cells; type: cell-based
Description: The antiviral evaluation of selected BIT compounds against BVDV was outsourced to Southern Research Institute (SRI), Fredrick Md. USA. A simple cytoprotection format is used in which the antiviral efficacy of the compounds is assessed by their ability to reduce the cytopathic effect of BVDV infection in Madin-Darby bovine kidney cells (Buckwold et al., 2003)
(§1) A virus-induced cytopathogenic effects (CPE)-inhibition assay procedure was employed to evaluate compounds for antiviral activity against bovine viral diarrhea virus (BVDV) strain NADL, in Madin-Darby bovine kidney (MDBK) cells passaged in T-75 flasks (1, 2). Antiviral assays were designed to test six half-log concentrations of each compound in triplicate against the challenge virus. Cell controls (CC) containing medium alone, virus-infected cell controls (VC) containing medium and virus, drug cytotoxicity controls containing medium and each drug concentration, reagent controls containing culture medium only (no cells), and drug colorimetric controls containing drug and medium (no cells) are run simultaneously with the test samples. Human interferon-α 2b was used as a positive control compound. On the day preceding the assay, the cells were trypsinized, pelleted, counted and resuspended at 1×10^4/well in tissue culture medium in 96-well flat bottom tissue culture plates in a volume of 100 μl per well. One day following plating of cells, the wells were washed and the medium was replaced with complete medium (2% serum) containing various concentrations of test compound diluted in medium in a half-log series. A pre-titered aliquot of virus was removed from the freezer (−80° C.) just before each experiment. The virus was diluted into tissue culture medium such that the amount of virus added to each well would give complete cell killing at 6-7 days post-infection. The plates were incubated at 37° C. in a humidified atmosphere containing 5% CO2 until maximum CPE is observed in the untreated virus control cultures (˜day 7) Inhibition of CPE by the compound was determined using Cell Titer 96 (Promega). A colorimetric method for determining the number of viable cells was used. A computer program was utilized to calculate the percent of CPE reduction of the virus-infected wells and the percentage cell viability of uninfected drug control wells. […] A therapeutic (selectivity) index (TI50) for each active compound was determined by dividing the TC50 by the IC50.
(§2) Drug cytotoxicity was measured separately in uninfected cells. Eleven BIT compounds were tested in the first experiment in which the compounds were added to the cells just prior to infection and were maintained throughout the entire experiment. Two of them, BIT225 and BIT314 returned sub-micromolar IC50 values (see Table 2 below).

[3] = target: T2, GBV-B p13 ion channel (Hepatitis GB virus B, UniProt Q69422); conditions: synthetic peptide of two C-terminal transmembrane helices of p13; Premkumar et al., 2006; cited from earlier work
T2 construct: a synthetic peptide corresponding to the two C-terminal transmembrane helices of p13 (which share the greatest homology to p7); host or cells: chemically synthesised peptide

[4] = tested on: Madin-Darby bovine kidney (MDBK) cells; experiment: Drug cytotoxicity in uninfected MDBK cells; type: cell-based; conditions: for TC50: uninfected MDBK cells
Description: as §1, §2

[5] = Bovine viral diarrhea virus isolates and strains, MDBK, Table 2a, read-out: BVDV IC50
[6] = BVDV in MDBK cells, compound added just prior to infection and maintained, N/A = not achieved, read-out: IC50
[7] = Bovine viral diarrhea virus isolates and strains, MDBK, nucleoside analog tested individually against BVDV, read-out: EC50

T1 sequence (P27958 747-809): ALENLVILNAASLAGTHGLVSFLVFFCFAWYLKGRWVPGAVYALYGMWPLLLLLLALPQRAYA
T2 sequence (Q69422 670-732): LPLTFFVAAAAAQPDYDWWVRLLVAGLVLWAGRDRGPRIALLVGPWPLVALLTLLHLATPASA

Row | Compound | Average Bacterial Assay Score HCV p7 [1] | IC50 [2, 5] [µM] | also measured
1 | COc1ccc(-c2cccc3cc(C(=O)NC(=N)N)ccc23)c(OC)n1 [BIT315, (5-(2,6-dimethoxypryridin-3-yl)-2-napthoyl)guanidine] | 0.20 | > 20 | –
2 | N=C(N)NC(=O)c1ccc2c(-c3ccccc3Cl)cccc2c1 [BIT316, (5-(2-chlorophenyl)-2-napthoyl)guanidine] | 0.37 | > 20 | –
3 | Cc1ccc2cc(C(=O)NC(=N)N)ccc2c1 [BIT306, (6-methyl-2-napthoyl)guanidine] | 0.07 | 14.5 | –
4 | N=C(N)NC(=O)c1ccc2c(Br)cccc2c1 [BIT303, (5-bromo-2-napthoyl)guanidine] | 0.62 | 13.6 | –
5 | CC(=O)Nc1cccc(-c2cccc3cc(C(=O)NC(=N)N)ccc23)c1 [BIT318, (5-(3-(acetylamino)phenyl)-2-napthoyl)guanidine] | 0.73 | > 20 | –
6 | N=C(N)NC(=O)c1ccc2cc(-c3ccsc3)ccc2c1 [BIT305, (6-(3-thienyl)-2-napthoyl)guanidine] | 0.08 | > 20 | –
7 | NC12CC3CC(CC(C3)C1)C2 [amantadine] | – | – | effect on p13 ion channel [3]: blocked
8 | N=C(N)NC(=O)C=Cc1cccc(Br)c1 [BIT067, (3-Bromocinnamoyl)guanidine] | 2.00 | – | –
9 | Cc1cccc2cc(C(=O)NC(=N)N)ccc12 [BIT218, 5-methyl-2-napthoylguanidine] | 1.7 | – | –
10 | N=C(N)NC(=O)c1ccc2c(-c3cccs3)cccc2c1 [BIT308, (5-(thien-2-yl)-2-napthoyl)guanidine] | 0.55 | 8.73 | –
11 | N=C(N)NC(=O)/C=C/c1cccc2c1CCC2 [BIT222, 3(indan-4-yl)-propenoylguanidine] | 2.0 | – | –
12 | COc1cc(C(=O)NC(=N)N)c(OC)c2ccccc12 [BIT304, (1,4-dimethoxy--2-napthoyl)guanidine] | 0.60 | > 20 | –
13 | N=C(N)NC(=O)/C=C/c1cccc2c1OCO2 [BIT217, 2,3-methylenedioxycinnamoyl guanidine] | 1.0 | – | –
14 | N=C(N)NC(=O)C=Cc1ccc(Cl)c(Cl)c1 [BIT300, 3,4-dichlorocinnamoyl guanidine] | 1.12 | – | TC59 [4]: 3.69 µM
15 | CC(C)Cn1cc(-c2cccc3cc(C(=O)NC(=N)N)ccc23)cn1 [BIT310, (5-(1-isobutyl-1H-pyrazol-4-yl)-2-napthoyl)guanidine] | 0.36 | > 20 | –
16 | N=C(N)NC(=O)c1ccc2c(Cl)cccc2c1 [BIT313, (5-chloro-2-napthoyl)guanidine] | 1.30 | 9.64 | –

Row | Compound | Average Bacterial Assay Score HCV p7 [1] | IC50 [2, 5] [µM] | also measured
17 | N=C(N)NC(=O)c1ccc2c(C3CC3)cccc2c1 [BIT312, (5-cyclopropyl-2-napthoyl)guanidine] | 1.00 | 8.63 | –
18 | CC(=O)Nc1ccc(-c2cccc3cc(C(=O)NC(=N)N)ccc23)cc1 [BIT317, (5-(4-(acetylamino)phenyl)-2-napthoyl)guanidine] | 0.06 | 6.02 | –
19 | N=C(N)NC(=O)c1ccc2c(-c3ccsc3)cccc2c1 [BIT224, 5-thiophen-3-yl-2-naphthoylguanidine] | 1.10 | – | –
20 | COc1c(C(=O)NC(=N)N)ccc2ccccc12 [BIT301, (1-methoxy-2-napthoyl)guanidine] | 0.25 | > 20 | –
21 | N=C(N)NC(=O)c1ccc2c(-c3ccccc3)cccc2c1 [BIT307, (5-phenyl-2-napthoyl)guanidine] | 0.46 | 1.99 | –
22 | CC(=O)O.Cn1cc(-c2ccc3cc(C(=O)NC(=N)N)ccc3c2)cn1 [BIT314, (6-(1-methylpryazol-4-yl)-2-napthoyl)guanidinium acetate] | 4.03 | 0.39 | TC50 [4]: 11.6 µM; IC50 [2, 6]: 0.21 µM; EC50 ([2]; Bovine viral diarrhea virus isolates and strains, MDBK, drug alone, average of experiments, read-out: average EC50): 300 nM; EC50 ([2]; Bovine viral diarrhea virus isolates and strains, MDBK, in the presence of 5 IU/ml IFNα plus 1.25 μg/ml ribavirin, read-out: EC50): 183 nM; EC50 ([2]; Bovine viral diarrhea virus isolates and strains, MDBK, in the presence of 40 IU/ml IFNα, read-out: EC50): ~60 nM; EC50 ([2]; drug alone, average of experiments, read-out: average EC50): 380 nM; EC50 ([2]; drug tested individually against BVDV, read-out: EC50): 210 nM and 390 nM and 540 nM; IC50 values (in words) ([2]; first experiment, Table 2): sub-micromolar
23 | C[C@@]1(O)[C@H](O)[C@@H](CO)O[C@H]1n1cnc2c(N)ncnc21 [2′-C-methyladenosine, reference compound] | – | – | EC50 [2, 7]: 2160 nM
24 | N=C(N)NC(=O)C=Cc1cc(Br)ccc1F [BIT124, 5-bromo-2-fluorocinnamoylguanidine] | 2.70 | – | TC59 [4]: 5.21 µM
25 | N=C(N)NC(=O)/C=C/c1cccc(C(=O)c2ccccc2)c1 [BIT216, (3-benzoyl)cinnamoylguanidine] | 1.3 | – | –
26 | C[C@@]1(O)[C@H](O)[C@@H](CO)O[C@H]1n1ccc(N)nc1=O [2′-C-methylcytidine, reference compound] | – | – | EC50 [2, 7]: 2750 nM
27 | COc1ccc2cc(C(=O)NC(=N)N)ccc2c1Br [BIT223, 5-bromo-6-methoxy-2-napthoylguanidine] | 0.5 | – | TC50 [4]: >30.0 µM; IC50 [2, 6]: 4.38 µM
28 | NC(N)=NC(=O)c1nc(Cl)c(N2CCCCCC2)nc1N [HMA] | – | – | effect on p13 ion channel [3]: does not inhibit
29 | IFN-α | – | – | TC59 [4]: >500 IU/mL; inhibition ([2]; 5 IU/ml IFNα alone): ~8%; IC50 ([2]; BVDV in MDBK cells, positive control): 20.6 IU/mL; EC50 ([2]; drug tested individually against BVDV): 21.7 IU/ml
30 | N=C(N)NC(=O)c1ccc2c(-c3ccoc3)cccc2c1 [BIT311, (5-(3-furyl)-2-napthoyl)guanidine] | 0.81 | 2.96 | –
31 | COc1cc2ccccc2cc1C(=O)NC(=N)N [BIT302, (3-methoxy-2-napthoyl)guanidine] | 0.76 | 7.21 | –
32 | CS(=O)(=O)Nc1ccc(-c2cccc3cc(C(=O)NC(=N)N)ccc23)cc1 [BIT319, (5-(4-((methylsulphonyl)amino)phenyl)-2-napthoyl)guanidine] | 0.10 | > 20 | –
